Laboratory results as given in article PMC3510433, “Adamantyl carboxamides and acetamides as potent human 11β-hydroxysteroid dehydrogenase type 1 inhibitors” (Bioorganic & Medicinal Chemistry, 2012).
“Also recorded” adds a separate entry of the source. Marks after values point to notes of the source that are not given here.

Tests used:
[1] = molecular target: human cytochrome P450 3A4-BFC (Homo sapiens, UniProt P08684); assay: Inhibition of human cytochrome P450 3A4-BFC (7-benzyloxy-4-(trifluoromethyl)coumarin); format: in vitro ADME; details: mean value of two measurements
human cytochrome P450 3A4-BFC, sequence (P08684 whole entry): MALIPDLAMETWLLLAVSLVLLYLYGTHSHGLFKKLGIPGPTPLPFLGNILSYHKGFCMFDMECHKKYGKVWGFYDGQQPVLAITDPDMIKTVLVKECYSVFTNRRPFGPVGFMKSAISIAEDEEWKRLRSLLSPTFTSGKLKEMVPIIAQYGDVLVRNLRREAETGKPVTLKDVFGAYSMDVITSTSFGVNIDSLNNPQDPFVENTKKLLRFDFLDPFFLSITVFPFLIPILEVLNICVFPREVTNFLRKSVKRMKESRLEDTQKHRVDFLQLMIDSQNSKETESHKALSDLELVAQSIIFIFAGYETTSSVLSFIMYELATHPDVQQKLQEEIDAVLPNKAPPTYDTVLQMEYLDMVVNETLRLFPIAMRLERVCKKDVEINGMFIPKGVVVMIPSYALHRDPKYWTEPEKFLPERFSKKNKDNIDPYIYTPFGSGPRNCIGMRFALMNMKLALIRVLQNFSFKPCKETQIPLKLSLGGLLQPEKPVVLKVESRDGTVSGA
Description: (§1) To identify potential problems with these compounds interfering with the metabolism of other drugs, compounds 3, 4, 15 and 41 were studied for their inhibition of the key human cytochrome P450 enzymes: 1A2, 2C9, 2C19, 2D6, 3A4-BFC (7-benzyloxy-4-(trifluoromethyl)coumarin) and 3A4-BQ (7-benzyloxyquinoline) (Table 6).

[2] = system: key human cytochrome P450 enzymes; assay: Inhibition of the key human cytochrome P450 enzymes (panel, summary statements); format: in vitro ADME
Description: as §1

[3] = molecular target: human cytochrome P450 2D6 (Homo sapiens, UniProt P10635); assay: Inhibition of human cytochrome P450 2D6; format: in vitro ADME; details: for Percentage inhibition of 2D6: 10 μM; for IC50: mean value of two measurements
human cytochrome P450 2D6, sequence (P10635 whole entry): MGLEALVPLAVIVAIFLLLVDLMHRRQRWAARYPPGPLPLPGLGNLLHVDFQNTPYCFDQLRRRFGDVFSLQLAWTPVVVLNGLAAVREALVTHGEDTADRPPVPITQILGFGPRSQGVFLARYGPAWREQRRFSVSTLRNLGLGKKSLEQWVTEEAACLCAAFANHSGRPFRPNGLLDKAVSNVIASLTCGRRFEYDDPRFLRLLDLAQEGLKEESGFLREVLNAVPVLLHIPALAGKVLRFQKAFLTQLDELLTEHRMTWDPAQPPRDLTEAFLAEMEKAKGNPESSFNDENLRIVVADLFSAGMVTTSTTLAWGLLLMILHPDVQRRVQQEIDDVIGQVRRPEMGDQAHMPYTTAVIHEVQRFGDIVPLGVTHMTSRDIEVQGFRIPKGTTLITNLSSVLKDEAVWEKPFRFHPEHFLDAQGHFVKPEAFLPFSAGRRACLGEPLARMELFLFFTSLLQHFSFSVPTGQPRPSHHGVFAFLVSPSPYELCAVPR
Description: as §1

Caco-2 cell model = assay: Membrane permeability, Caco-2 cell model; format: in vitro ADME; details: Caco-2, 20 μM
Description: (§2) Compound 3 was studied for its membrane permeability using the Caco-2 cell model.

[4] = Membrane permeability, Caco-2 cell model; format: in vitro ADME; details: human, Caco-2; apical to basolateral, 20 μM
Description: as §2

[5] = Stability in incubation with human liver microsomes; format: in vitro ADME; details: 37 °C, NADPH; for half-life: 40 min
Method: Potent inhibitors (3 and 15) were incubated at 37 °C for 40 min with human liver microsomes in the presence of the cofactor NADPH to evaluate their stability under such conditions. The remaining parent compound was measured using a HPLC method.

[6] = molecular target: human cytochrome P450 2C19 (Homo sapiens, UniProt P33261); assay: Inhibition of human cytochrome P450 2C19; format: in vitro ADME; details: for Percentage inhibition of 2C19: 10 μM; for IC50: mean value of two measurements
human cytochrome P450 2C19, sequence (P33261 whole entry): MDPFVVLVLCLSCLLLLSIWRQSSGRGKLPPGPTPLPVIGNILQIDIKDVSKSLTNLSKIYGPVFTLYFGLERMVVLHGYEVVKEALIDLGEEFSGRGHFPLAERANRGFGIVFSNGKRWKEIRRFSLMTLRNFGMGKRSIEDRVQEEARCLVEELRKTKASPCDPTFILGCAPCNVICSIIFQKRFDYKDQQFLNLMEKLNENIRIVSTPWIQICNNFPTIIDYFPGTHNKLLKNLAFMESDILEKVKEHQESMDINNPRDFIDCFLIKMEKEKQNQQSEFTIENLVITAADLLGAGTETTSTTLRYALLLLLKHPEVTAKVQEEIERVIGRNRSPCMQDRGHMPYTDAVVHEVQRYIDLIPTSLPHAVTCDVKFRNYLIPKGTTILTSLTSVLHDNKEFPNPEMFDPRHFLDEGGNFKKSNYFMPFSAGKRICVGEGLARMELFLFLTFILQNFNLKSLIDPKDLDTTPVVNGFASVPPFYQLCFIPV
Description: as §1

[7] = molecular target: T1, human cytochrome P450 1A2 (Homo sapiens, UniProt P05177); assay: Inhibition of human cytochrome P450 1A2; format: in vitro ADME; details: for Percentage inhibition of 1A2: 10 μM; for IC50: mean value of two measurements
T1 sequence (P05177 1-516): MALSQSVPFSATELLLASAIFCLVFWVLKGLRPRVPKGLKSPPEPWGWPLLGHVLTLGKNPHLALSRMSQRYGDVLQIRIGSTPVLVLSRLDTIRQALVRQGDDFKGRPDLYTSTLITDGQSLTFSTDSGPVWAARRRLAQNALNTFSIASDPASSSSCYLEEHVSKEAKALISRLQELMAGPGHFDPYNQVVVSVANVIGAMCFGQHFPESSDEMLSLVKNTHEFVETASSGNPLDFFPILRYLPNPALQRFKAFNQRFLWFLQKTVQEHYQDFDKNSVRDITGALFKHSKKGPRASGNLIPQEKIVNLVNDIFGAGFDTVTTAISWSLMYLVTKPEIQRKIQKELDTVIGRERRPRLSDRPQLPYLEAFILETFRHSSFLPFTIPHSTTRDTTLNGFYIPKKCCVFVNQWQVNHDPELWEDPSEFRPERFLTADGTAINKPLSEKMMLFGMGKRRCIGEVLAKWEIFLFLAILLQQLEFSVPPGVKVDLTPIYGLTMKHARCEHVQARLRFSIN
Description: as §1

human 11β-HSD1 = molecular target: T2, human 11β-HSD1 (Homo sapiens, UniProt P28845); assay: 11β-HSD1 inhibition, human HEK-293 cell based assay (SPA); details: for IC50: HEK-293 cells stably transfected with HSD11B1, mean of 3 measurements; for inhibition at 1 µM: HEK293, HEK-293 cells transfected with HSD11B1, read-out: Percentage of inhibition measured at 1 μM
T2 construct: expressed in transfected cells; host or cells: HEK-293 (human), stably transfected
T2 sequence (P28845 whole entry): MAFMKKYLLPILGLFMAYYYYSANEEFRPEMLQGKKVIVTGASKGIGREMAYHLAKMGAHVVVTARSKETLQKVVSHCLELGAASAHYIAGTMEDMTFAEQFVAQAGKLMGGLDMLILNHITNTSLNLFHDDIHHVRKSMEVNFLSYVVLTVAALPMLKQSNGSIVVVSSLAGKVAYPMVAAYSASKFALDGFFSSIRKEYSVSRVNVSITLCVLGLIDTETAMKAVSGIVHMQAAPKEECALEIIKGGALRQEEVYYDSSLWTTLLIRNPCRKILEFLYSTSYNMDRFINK
Method: 11β-HSD1 inhibition was measured in intact human HEK-293 cells to reveal the true inhibitory activity. Differences in observed effects for different compounds may reflect combinatorial factors including the ability to penetrate the cell membrane, the stability within the cell and the binding ability to the enzyme.
The cell-based assays were conducted on the human HEK-293 cell line stably transfected with the HSD11B1 gene.[28] 11β-HSD1 activity was determined by measuring the amount of tritiated product formed using a scintillation proximity assay (SPA).
Cells were incubated in 96-well micro-plates in the presence of tritiated cortisone substrate and the assay plates contained internal high and low controls to allow calculation of percentage inhibition. Each well of a 96-well culture plate was seeded with human 11β-HSD1 overexpressed HEK293 cells in 100 μL medium. When the cells were 80% confluent, the medium was removed from each well then 100 μL of fresh, serum-free, medium containing ^3H-cortisone (22 nM) and test compound in 1% DMSO was added. The control wells were also dispensed. […] The plate was incubated at 37 °C for 2 h, after which 50 μL of medium was removed from each well and transferred to a microplate containing 100 μL of a pre-incubated mixture of anti-cortisol antibody and SPA bead. The mixture was incubated with gentle shaking until equilibrium was reached, before transferring to a scintillation counter to establish the enzyme activity in each sample.
The compounds were initially tested at a concentration of 1 μM. Those compounds showing over 70% inhibition of 11β-HSD1 at 1 μM were subjected to an IC50 measurement. A Merck compound 544 was used as the reference compound in the assay (IC50 = 50 ± 20 nM).[19] The IC50 values are reported as the mean value of 3 measurements with variance less than 20%. IC50 values were calculated from the dose-response curve using Microsoft Excel add-in XLfit with a Four Parameter Logistic nonlinear regression model.

[8] = molecular target: human cytochrome P450 3A4-BQ (Homo sapiens, UniProt P08684); assay: Inhibition of human cytochrome P450 3A4-BQ (7-benzyloxyquinoline); format: in vitro ADME; details: for Percentage inhibition of 3A4-BQ: 10 μM; for IC50: mean value of two measurements
human cytochrome P450 3A4-BQ, sequence (P08684 whole entry): as the sequence (P08684 whole entry) above
Description: as §1

[9] = molecular target: human cytochrome P450 2C9 (Homo sapiens, UniProt P11712); assay: Inhibition of human cytochrome P450 2C9; format: in vitro ADME; details: for Percentage inhibition of 2C9: 10 μM; for IC50: mean value of two measurements
human cytochrome P450 2C9, sequence (P11712 whole entry): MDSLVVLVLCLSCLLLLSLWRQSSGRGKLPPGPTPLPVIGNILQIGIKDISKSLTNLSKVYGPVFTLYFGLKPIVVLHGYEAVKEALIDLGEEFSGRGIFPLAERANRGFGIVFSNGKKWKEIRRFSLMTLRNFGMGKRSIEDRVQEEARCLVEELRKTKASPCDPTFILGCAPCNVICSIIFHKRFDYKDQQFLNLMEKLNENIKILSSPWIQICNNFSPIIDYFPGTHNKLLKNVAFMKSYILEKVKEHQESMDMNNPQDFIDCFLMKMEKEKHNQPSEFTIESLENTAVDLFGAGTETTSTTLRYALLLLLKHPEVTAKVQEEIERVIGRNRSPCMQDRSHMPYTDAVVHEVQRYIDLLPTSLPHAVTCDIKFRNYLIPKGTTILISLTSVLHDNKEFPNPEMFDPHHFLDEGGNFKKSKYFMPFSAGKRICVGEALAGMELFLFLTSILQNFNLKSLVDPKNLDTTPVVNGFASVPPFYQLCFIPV
Description: as §1

[10] = system: CYP 2CA (so in the source), CYP3A4; assay: Inhibition of the key human cytochrome P450 enzymes (panel, summary statements); format: in vitro ADME; details: human; 2CA, 3A4-BFC and 3A4-BQ
Description: as §1

SMILES: CN(Cc1cccs1)C(=O)C12CC3CC(CC(C3)C1)C2 [Compound 3]
- IC50 [1]: 10000 nM
- activity against 2C9 and 3A4-BFC (in words) ([2]; 2C9 and 3A4-BFC): weak activity
- Percentage inhibition of 2D6 [3]: 2% ^a
- permeability (in words) (Caco-2 cell model): high permeability
- Papp A→B at 20 μM [4]: 33 ×10⁻⁶ cm/s
- half-life [5]: 1 to 1.17 h
- stability with human liver microsomes (in words) [5]: moderately stable
- Percentage inhibition of 2C19 [6]: 13% ^a
- Percentage inhibition of 1A2 [7]: 6% ^a
- IC50 (human 11β-HSD1): 229 nM
- Percentage inhibition of 3A4-BQ [8]: 34% ^a
- Percentage inhibition of 2C9 [9]: 62% ^a

SMILES: CN(Cc1cccs1)C(=O)CC12CC3CC(CC(C3)C1)C2 [Compound 4, 2-(Adamantan-1-yl)-N-methyl-N-(thiophen-2-ylmethyl)acetamide]
- IC50 [1]: 150 nM
- Percentage inhibition of 2D6 [3]: 9% ^a
- Percentage inhibition of 2C19 [6]: 80% ^a
- Percentage inhibition of 1A2 [7]: 1% ^a
- IC50 (human 11β-HSD1): 308 nM
- Percentage inhibition of 3A4-BQ [8]: 66% ^a
- Percentage inhibition of 2C9 [9]: 49% ^a

SMILES: CN(Cc1cccn1C)C(=O)C12CC3CC(CC(C3)C1)C2 [Compound 15, N-Methyl-N-((1-methyl-1H-pyrrol-2-yl)-methyl)adamantane-1-carboxamide]
- IC50 [1]: 19000 nM
- inhibition of the key human cytochrome P450 enzymes (in words) ([2]; 1A2, 2C9, 2C19, 2D6, 3A4-BFC, 3A4-BQ): weak inhibitory activity; also recorded: very weak inhibition; also recorded: very weak inhibitory activity
- IC50 [3]: > 100000 nM
- half-life [5]: 1 to 1.17 h
- stability with human liver microsomes (in words) [5]: moderate stability; also recorded: moderately stable; also recorded: relatively stable
- IC50 [6]: > 100000 nM
- IC50 [7]: > 100000 nM
- IC50 (human 11β-HSD1): 114 nM
- fold more potent than compound 16 (human 11β-HSD1; N-methyl amide vs NH analogue 16): over 15 times
- IC50 [8]: 18000 nM
- IC50 [9]: > 100000 nM

SMILES: Cn1cccc1CNC(=O)C12CC3CC(CC(C3)C1)C2 [Compound 16, N-((1-Methyl-1H-pyrrol-2-yl)meth-yl)-adamantane-1-carboxamide]
- melting point: 117 to 119 °C
- IC50 (human 11β-HSD1): 1700 nM

SMILES: CN(Cc1nccn1C)C(=O)C12CC3CC(CC(C3)C1)C2 [Compound 17, N-Methyl-N-((1-methyl-1H-imidazol-2-yl)methyl)adamantane-1-carboxamide]
- melting point: 175 to 176 °C
- inhibition at 1 µM (human 11β-HSD1): 24%

SMILES: CN(Cc1ccnn1C)C(=O)C12CC3CC(CC(C3)C1)C2 [Compound 18, N-Methyl-N-((1-methyl-1H-pyrazol-5-yl)-methyl)adamantane-1-carboxamide]
- melting point: 102 to 103.5 °C
- inhibition at 1 µM (human 11β-HSD1): 34%

SMILES: CN(Cc1cccc(N)c1)C(=O)C12CC3CC(CC(C3)C1)C2 [Compound 20, N-(3-Aminobenzyl)-N-methyladam-antane-1-carboxamide]
- melting point: 105 to 106.5 °C
- IC50 (human 11β-HSD1): 118 nM

SMILES: CC(=O)Nc1cccc(CN(C)C(=O)C23CC4CC(CC(C4)C2)C3)c1 [Compound 21, N-(3-Acetamidobenzyl)-N-methyl-adamantane-1-carboxamide]
- melting point: 109 to 111 °C
- inhibition at 1 µM (human 11β-HSD1): 22%

SMILES: CN(Cc1cccnc1)C(=O)C12CC3CC(CC(C3)C1)C2 [Compound 24, N-Methyl-N-(pyridin-3-ylmethyl)-adamantane-1-carboxamide]
- melting point: 57 to 59.5 °C
- inhibition at 1 µM (human 11β-HSD1): 57%

SMILES: O=C(NCc1ccccn1)C12CC3CC(CC(C3)C1)C2 [Compound 26, N-(Pyridin-2-ylmethyl)adamantane-1-carboxamide]
- melting point: 91 to 93.5 °C
- inhibition at 1 µM (human 11β-HSD1): 45%

SMILES: Cc1cccc(CN(C)C(=O)C23CC4CC(CC(C4)C2)C3)n1 [Compound 27, N-Methyl-N-((6-methylpyridin-2-yl)-methyl)adamantane-1-carboxamide]
- melting point: 76 to 77.5 °C
- inhibition at 1 µM (human 11β-HSD1): 48%

SMILES: CN(CCc1ccccn1)C(=O)C12CC3CC(CC(C3)C1)C2 [Compound 30, N-Methyl-N-(2-(pyridin-2-yl)ethyl)-adamantane-1-carboxamide]
- melting point: 64 to 65 °C
- IC50 (human 11β-HSD1): 165 nM

SMILES: O=C(NCCc1ccccn1)C12CC3CC(CC(C3)C1)C2 [Compound 31, N-(2-(Pyridin-2-yl)ethyl)adamant-ane-1-carboxamide]
- melting point: 76 to 79 °C
- IC50 (human 11β-HSD1): 379 nM

SMILES: O=C(NCCc1cccnc1)C12CC3CC(CC(C3)C1)C2 [Compound 32, N-(2-(Pyridin-3-yl)ethyl)adamant-ane-1-carboxamide]
- melting point: 83 to 85 °C
- inhibition at 1 µM (human 11β-HSD1): 1%

SMILES: O=C(CC12CC3CC(CC(C3)C1)C2)NCc1cccs1 [Compound 33, 2-(Adamantan-1-yl)-N-(thiophen-2-ylmeth-yl)acetamide]
- melting point: 117 to 119 °C
- inhibition at 1 µM (human 11β-HSD1): 66%

SMILES: CN(Cc1ccsc1)C(=O)CC12CC3CC(CC(C3)C1)C2 [Compound 34, 2-(Adamantan-1-yl)-N-methyl-N-(thio-phen-3-ylmethyl)acetamide]
- melting point: 117 to 119 °C
- IC50 (human 11β-HSD1): 349 nM
- fold reduction in potency compared to 12 (human 11β-HSD1; acetamide vs carboxamide 12): greater than 2 fold

SMILES: CN(Cc1cccn1C)C(=O)CC12CC3CC(CC(C3)C1)C2 [Compound 35, 2-(Adamantan-1-yl)-N-methyl-N-[(1-methyl-1H-pyrrol-2-yl)methyl]acetamide]
- melting point: 75 to 76.5 °C
- IC50 (human 11β-HSD1): 655 nM
- fold loss of inhibitory activity compared with 15 (human 11β-HSD1; acetamide vs carboxamide 15): ~6 fold

SMILES: Cn1cccc1CNC(=O)CC12CC3CC(CC(C3)C1)C2 [Compound 36, 2-(Adamantan-1-yl)-N-[(1-methyl-1H-pyrrol-2-yl)methyl]acetamide]
- melting point: 92 to 95 °C
- IC50 (human 11β-HSD1): 2880 nM

SMILES: CN(Cc1cccnc1)C(=O)CC12CC3CC(CC(C3)C1)C2 [Compound 37, 2-(Adamantan-1-yl)-N-methyl-N-(pyridin-3-ylmethyl)acetamide]
- melting point: 67 to 68.5 °C
- inhibition at 1 µM (human 11β-HSD1): 67%

SMILES: CN(Cc1cccs1)C(=O)C12CC3CC(CC1C3)C2 [Compound 39, N-Methyl-N-(thiophen-2-ylmethyl)-tRicyclo[3.3.1.0^(3,7)]nonane-3-carboxamide]
- melting point: 87 to 88.5 °C
- IC50 (human 11β-HSD1): 1080 nM

SMILES: Cc1ccc(C2(C(=O)N(C)Cc3cccs3)CC2)cc1 [Compound 41, N-Methyl-N-(thiophen-2-ylmethyl)-1-p-tolylcyclopropanecarboxamide]
- IC50 [1]: 7300 nM
- IC50 [10]: 1600 to 7300 nM
- IC50 [3]: 72000 nM
- IC50 [6]: > 100000 nM
- IC50 [7]: > 100000 nM
- IC50 (human 11β-HSD1): 280 nM
- IC50 [8]: 1600 nM
- IC50 [9]: 4500 nM

SMILES: CN(Cc1cccs1)C(=O)C1(c2ccc(Cl)cc2)CCCC1 [Compound 44, 1-(4-Chlorophenyl)-N-methyl-N-(thio-phen-2-ylmethyl)cyclopentanecarbox-amide]
- melting point: 58 to 60 °C
- IC50 (human 11β-HSD1): 2200 nM
